Key:
[1] = system: NLRP3 inflammasome components; experiment: Immunoblot of NLRP3 inflammasome components in BMDM; assay type: cell-based, mouse; conditions: BMDM pretreated with RSM932A
Experimental: Protein Immunoblotting and ELISA—Mitochondria were isolated using Mitochondria Isolation kit. Whole cell lysates were prepared in NP40 buffer containing a protease inhibitor cocktail and a phosphatase inhibitor cocktail, and supernatants were analyzed by SDS-PAGE. Proteins were transferred into PVDF membranes, blocked in 5% BSA and 1×TBST for 1 hr, and incubated with indicated antibodies overnight. Secondary antibodies were added for 1 hr and detection was done using CLARITY™ Western ECL Substrate (Biorad). Paired antibodies (capture and detection) and standard recombinant mouse IL-1β (R&D Systems), and TNF and IL-6 (eBioscience) were used to determine cytokine concentrations according to manufacturer's instructions.

[2] = system: choline mobilization via the Kennedy pathway; experiment: Choline, phosphocholine and phosphatidylcholine content of LPS-stimulated BMDM (NMR, MS); assay type: cell-based, mouse; conditions: RSM932A-pretreated BMDM, LPS 4 hr
Experimental: Choline and Phosphocholine Analysis by NMR—BMDM were treated with LPS for 4 hr and then were collected and processed for NMR analysis as described (Guma et al., 2015a; Tiziani et al., 2009). Polar metabolite isolation was performed using a modified Bligh-Dyer procedure (Wu et al., 2008). Extracts were dried using a CentriVap refrigerated vacuum concentrator (Labconco, Kansas City, MO, USA). Dried extracts were reconstituted in 100 mM phosphate buffer (pH 7.0) prepared in 10% H2O/90% D2O (Sigma) that contained 0.5 mM sodium 3-(trimethylsilyl)propionate-2,2,3,3,-d4 (TMSP) as the internal standard. One-dimensional ^1H NMR spectra were acquired on a Bruker Avance III 500 MHz with 1.7 mm TCI MicroCryoProbe system (Bruker BioSpin Corp., Billerica, MA) equipped with an autosampler at 300 K and processed as previously described (Lodi et al., 2017; Lu et al., 2017; Ludwig and Gunther, 2011). Metabolite assignment and quantification were performed using the Chenomx 8.2 NMR Suite (Chenomx Inc., Edmonton, Alberta, Canada), the Birmingham Metabolite Library (Ludwig et al., 2012), and the Human Metabolome Database (Wishart et al., 2012).
Total phosphatidylcholine and mitochondrial lipids analysis by mass spectrometry—Total phosphatydilcholine (PC) analysis was measured in RSM932A-pretreated BMDM stimulated with LPS for 4 hr, while mitochondrial lipids were measured in mitochondria isolated from BMDM cultured in control or choline deficient medium and subjected to different treatments for 24 hr. Samples were processed for UHPLC-MS/MS analysis and analysis was performed on a hybrid quadrupole-Orbitrap mass spectrometer (Q Exactive, Thermo Scientific, Bremen, Germany) coupled to an Accela 1250 UHPLC system equipped with a quaternary pump, vacuum degasser, and open autosampler with temperature controller (6° C.; Fisher Scientific, San Jose, CA, USA). […]

## C/[N+](c1ccc(Cl)cc1)=c1\ccn(Cc2ccc(-c3ccc(Cn4cc/c(=[N+](/C)c5ccc(Cl)cc5)c5ccccc54)cc3)cc2)c2ccccc12 [RSM932A]
[1]
  expression of NLRP3 inflammasome components (caspase-1, NLRP3, ASC, pro-IL-1β induced by LPS): did not alter
[2]
  LPS-induced increase in cellular content of phosphocholine, glycerol-3-phosphocholine and phosphatidylcholine (PC): blocked
